Where two headings read alike, the source gives them in different places.
Key:
Other kinesins = assay: Kinesin affinity, other kinesins; type: binding
Mouse KSP = Mouse KSP (Mus musculus, UniProt Q6P9P6); assay: Kinesin affinity, mouse KSP; type: binding
HT29 = assay: Cellular activity, HT29; type: cell-based
MX1 = assay: Cellular activity, MX1; type: cell-based
Colo205 = assay: Cellular activity, Colo205; type: cell-based
P388 (murine) = assay: Cellular activity, P388; type: cell-based
SKOV3 = assay: Cellular activity, SKOV3; type: cell-based
MV522 = assay: Cellular activity, MV522; type: cell-based
[1] = target: P-glycoprotein (Pgp, MDR1) (Homo sapiens, UniProt P08183); assay: in vitro
P-glycoprotein (Pgp, MDR1), sequence (P08183 whole entry): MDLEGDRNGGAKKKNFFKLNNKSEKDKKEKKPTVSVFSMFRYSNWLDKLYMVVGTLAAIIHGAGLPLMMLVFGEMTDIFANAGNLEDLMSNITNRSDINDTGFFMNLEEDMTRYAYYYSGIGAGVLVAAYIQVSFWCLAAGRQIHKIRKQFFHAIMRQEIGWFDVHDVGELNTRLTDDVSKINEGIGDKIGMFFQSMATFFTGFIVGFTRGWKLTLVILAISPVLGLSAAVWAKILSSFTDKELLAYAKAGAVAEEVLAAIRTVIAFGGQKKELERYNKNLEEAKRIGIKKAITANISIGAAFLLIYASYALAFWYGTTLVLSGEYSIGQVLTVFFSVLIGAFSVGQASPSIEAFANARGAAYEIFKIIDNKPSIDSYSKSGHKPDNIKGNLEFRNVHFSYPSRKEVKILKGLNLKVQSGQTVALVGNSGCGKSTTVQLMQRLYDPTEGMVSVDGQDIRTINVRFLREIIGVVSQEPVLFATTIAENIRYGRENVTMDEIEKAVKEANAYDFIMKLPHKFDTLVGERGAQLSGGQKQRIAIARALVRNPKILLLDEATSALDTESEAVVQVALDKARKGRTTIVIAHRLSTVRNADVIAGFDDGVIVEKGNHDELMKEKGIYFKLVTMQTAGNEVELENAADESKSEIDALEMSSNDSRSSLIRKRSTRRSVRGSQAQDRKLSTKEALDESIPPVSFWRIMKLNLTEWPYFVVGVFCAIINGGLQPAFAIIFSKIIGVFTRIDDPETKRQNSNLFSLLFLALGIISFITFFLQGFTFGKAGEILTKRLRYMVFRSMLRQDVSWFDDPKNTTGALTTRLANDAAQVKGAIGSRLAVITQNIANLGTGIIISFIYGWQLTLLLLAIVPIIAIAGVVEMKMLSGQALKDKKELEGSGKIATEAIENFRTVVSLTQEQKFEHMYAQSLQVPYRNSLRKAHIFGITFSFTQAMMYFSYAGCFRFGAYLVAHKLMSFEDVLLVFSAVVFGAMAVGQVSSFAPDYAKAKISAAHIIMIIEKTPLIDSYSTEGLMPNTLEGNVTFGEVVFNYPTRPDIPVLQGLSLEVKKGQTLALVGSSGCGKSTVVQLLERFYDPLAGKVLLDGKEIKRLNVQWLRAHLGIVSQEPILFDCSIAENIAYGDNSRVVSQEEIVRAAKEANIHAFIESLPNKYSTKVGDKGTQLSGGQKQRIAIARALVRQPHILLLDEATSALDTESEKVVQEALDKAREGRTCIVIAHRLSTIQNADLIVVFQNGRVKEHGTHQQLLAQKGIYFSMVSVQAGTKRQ

[2] = tested on: HT 29 chemo-refractory colon carcinoma xenograft
[3] = target: human P-glycoprotein (Pgp) (Homo sapiens, UniProt P08183); conditions: MDCKII-MDR1 cells
human P-glycoprotein (Pgp), sequence (P08183 whole entry): as above

[4] = tested on: MDA-MB-231 human tumor xenograft
[5] = tested on: MV 522 human lung carcinoma xenograft; assay: MV 522 xenograft tumor model; type: in vivo, nude mice; conditions: i.p. q4d×3, up to the MTD
[6] = tested on: murine P388 lymphocytic leukaemia; assay: P388 lymphocytic leukaemia model, dosing schedule study; type: in vivo
Description: More frequent administration of the compound was poorly tolerated and dictated a lower total dose. […] At doses equivalent to either ¼ or ½ the MTD, % ILS and NCK were reduced.

[7] = Dose-escalation Phase I study in patients with solid tumors; type: in vivo
Description: In this study, the ANC generally achieved a nadir at Day 7-8 and had completely recovered by Day 15.

[8] = tested on: broad spectrum of tumor cell lines; assay: Cytotoxic activity in tumor cell lines; type: cell-based
[9] = tested on: rat, dog, rabbit and human blood; assay: In vitro hemolysis on mixing with blood
Description: Hemolysis was not observed in any of the in vivo studies, nor has it been observed in the ongoing Phase I trial.

[10] = In vivo rat micronucleus study; conditions: all doses tested (≧3 mg/m^2 administered daily×2)
Description: (§1) Positive findings are consistent with the expected pharmacology of Compound A.

HT29 tumor xenografts = assay: HT29 tumor xenograft efficacy, Compound A and bortezomib alone and combined; type: in vivo, female athymic nu/nu mice; conditions: for TGD, second arm, single agents: 1.5 mg/kg bortezomib and 10 mg/kg Compound A as printed; for mean tumor growth delay (TGD): 1.5 mg/kg bortezomib, 10 mg/kg Compound A, q4d×3; for mean time to endpoint (TTE), tumor volume=1000 mm^3: single agents (at MTD for bortezomib and Compound A)
Description: (§2) Finally, tolerability and efficacy studies were conducted in which HT29 tumors maintained by serial passage were implanted subcutaneously in 9-10 weeks old female athymic no/nu mice (Harlan) Twenty-one (21) days post-implantation, when tumors reached 63-196 mm^3, mice were randomized into cohorts of […] with mean tumor volumes ˜100 mm^3. […] Drugs were delivered on the indicated schedules at 10 ml/kg by i.p. injection, except paclitaxel, which was administered by intravenous injection. Tumors were measured twice weekly and mice euthanized when tumor reached 1000 mm^3 or at day 59. Mice were weighed twice weekly. Acceptable toxicity was defined as body weight loss of <20% and ≦1 treatment-related death among ten treated animals. Toxicity exceeding these levels was considered above MTD.
(§3) Anti-tumor activity of sequenced (24 hour offset, q4d×3) and simultaneous administration was explored in HT29 tumor xenografts.
as §3

In vitro Ames test = type: cell-based
Description: as §1

[11] = Preclinical toxicology in dogs, 1-hr IV infusion; type: in vivo, dog
Description: Doses up to 40 mg/m^2 were tested in a single dose-range finding study and doses of 5, 10 and 20 mg/m^2 were tested in a 3-week (once weekly) toxicology study. Drug-related findings occurred at all dose levels, but severity and incidence were generally dose-proportional. […] In dogs given ≧10 mg/m^2, clinical observations of gastrointestinal (GI) disturbances included vomiting/retching, fecal abnormalities, hypoactivity, anorexia and body weight losses. […] Based on these findings, the highest non-severely toxic dose in the dog is 10 mg/m^2.

[12] = tested on: A2780 human tumor xenograft
[13] = Tolerability (MTD) of Compound A and bortezomib in nude mice; type: in vivo
Description: as §2

[14] = tested on: SK-MES human tumor xenograft
[15] = tested on: H69 human tumor xenograft
[16] = tested on: OVCAR-3 human tumor xenograft
[17] = tested on: MCF-7 human tumor xenograft
[18] = tested on: MX-1 mammary carcinoma xenograft; conditions: i.p. q4d×3
mouse lymphoma = assay: Mouse lymphoma mutagenicity assay; type: cell-based; conditions: in vitro mouse lymphoma mutagenicity assay
Description: as §1

[19] = Preclinical toxicology in rats, 1, 6 and 24-hr IV infusion; type: in vivo, rat; conditions: for dose at which mortality occurred: 24-hr infusion
Description: Transient drug-related findings occurred at all doses, but severity and incidence were generally dose proportional and dependent on the duration of infusion. Most consistent findings included hematopoeitic toxicity (depletion in bone marrow and thymus and associated hematologic changes) and enteropathy (necrosis/regeneration of intestinal crypt epithelium and villus atrophy and body weight loss or decrease in body weight gain). Microscopic changes (necrosis, apoptosis and/or cellular degeneration) were also evident in liver, mammary glands, testes and epididymus, and at ≧36 mg/m^2, increased mitotic figures in many tissues. All drug-related toxicities completely reversed 2 weeks after dosing, with the exception of degenerative testicular changes at ≧18 mg/m^2. In the 1 to 6-hr infusion studies, there was no mortality, however based on the severity of hematopoietic and gastrointestinal toxicities, the MTD was 72 mg/m^2. When the infusion was increased to 24-hr, mortality occurred at 18 mg/m^2 after a single dose and at 12 mg/m^2 after repeated weekly dosing.

[20] = tested on: Colo205 colon carcinoma xenograft; assay: Colo205 xenograft tumor model; type: in vivo, nude mice
[21] = i.p., q4d×3 schedule, at the MTD
[22] = Q21 days, patients with solid tumors
[23] = rat, 1 to 6-hr infusion studies

Mouse KSP, sequence (Q6P9P6 whole entry): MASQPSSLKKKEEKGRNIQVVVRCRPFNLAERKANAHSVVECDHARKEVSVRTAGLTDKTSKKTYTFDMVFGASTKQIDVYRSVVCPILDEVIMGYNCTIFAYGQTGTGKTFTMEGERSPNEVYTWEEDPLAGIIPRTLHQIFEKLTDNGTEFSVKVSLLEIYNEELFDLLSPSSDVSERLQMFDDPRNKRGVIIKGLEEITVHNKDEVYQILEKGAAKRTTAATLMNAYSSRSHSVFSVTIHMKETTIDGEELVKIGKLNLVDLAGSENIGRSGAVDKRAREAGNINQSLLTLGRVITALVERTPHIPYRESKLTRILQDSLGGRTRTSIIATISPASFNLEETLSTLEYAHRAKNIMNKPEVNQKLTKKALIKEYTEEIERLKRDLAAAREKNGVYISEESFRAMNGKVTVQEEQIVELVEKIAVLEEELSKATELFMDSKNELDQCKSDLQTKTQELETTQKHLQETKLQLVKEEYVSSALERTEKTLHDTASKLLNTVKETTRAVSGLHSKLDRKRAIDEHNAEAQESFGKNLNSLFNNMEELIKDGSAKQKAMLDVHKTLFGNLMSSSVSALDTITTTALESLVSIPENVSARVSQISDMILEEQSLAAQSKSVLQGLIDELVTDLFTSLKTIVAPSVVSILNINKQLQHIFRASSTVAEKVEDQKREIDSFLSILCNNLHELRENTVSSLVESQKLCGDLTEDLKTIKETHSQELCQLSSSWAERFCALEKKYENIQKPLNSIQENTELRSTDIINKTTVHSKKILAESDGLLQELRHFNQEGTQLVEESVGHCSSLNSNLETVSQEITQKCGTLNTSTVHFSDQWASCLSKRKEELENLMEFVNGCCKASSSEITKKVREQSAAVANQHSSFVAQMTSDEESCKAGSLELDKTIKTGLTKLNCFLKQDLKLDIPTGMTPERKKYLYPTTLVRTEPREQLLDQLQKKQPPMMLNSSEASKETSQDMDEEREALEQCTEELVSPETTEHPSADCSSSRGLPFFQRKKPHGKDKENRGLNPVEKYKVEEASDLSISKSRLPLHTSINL

Cc1ccc(C(=O)N(CCCN)[C@@H](c2nc3cc(Cl)ccc3c(=O)n2Cc2ccccc2)C(C)C)cc1 [ispinesib, reference compound]
Ki (Other kinesins): > 70000 nM | Ki (Mouse KSP): 0.76 nM | IC50 (HT29; Homo sapiens, HT-29): 1.2 nM | IC50 (MX1; Homo sapiens, MX1): 2.8 nM | IC50 (Colo205; Homo sapiens, COLO 205): 0.18 nM | IC50 (P388 (murine); Mus musculus, P388): 19.7 nM | IC50 (SKOV3; Homo sapiens, SK-OV-3): 1 nM | IC50 (MV522; MV522): 9.7 nM

COc1cc2c(cc1OC)CN(CCc1ccc(NC(=O)c3cccc4c(=O)c5cccc(OC)c5[nH]c34)cc1)CC2 [GF120918A]
activity at 2 μM [1]: ~30%

Cc1ccc(C(=O)N(CCCN)[C@@H](c2oc3cc(Cl)ccc3c(=O)c2Cc2ccccc2)C(C)C)cc1 [Compound A, N-(3-Aminopropyl)-N—[(R)-1-3-benzyl-7-chloro-4-oxo-4H-chromen-2-yl-2-methyl-propyl]-4-methyl-benzamide]
single agent activity against advanced xenograft ([2]; HT-29): tumor growth delay | tumor growth delay (T-C1000) ([2]; i.p. q4d×3, time differential to tumor volume 1000 mm^3): 25 days | Pgp substrate [3]: is a Pgp substrate | average P7.4 [3]: 2.5 ×10⁻⁶ cm/s | passive membrane permeability [3]: < 5 ×10⁻⁶ cm/s | single agent activity against advanced xenograft [4]: tumor growth delay | tumor response [5]: refractory | % ILS and NCK ([6]; doses equivalent to ¼ or ½ the MTD): reduced | mean (±SEM) % increase in lifespan (ILS) [6, 21]: 156±10% | net cell kill (NCK) [6, 21]: 2.9±0.5 logs | Ki (Other kinesins): > 70000 nM | Ki (Mouse KSP): 0.12 nM | patients with dose-limiting toxicity (Grade 3 hypophosphatemia, not thought to be drug-related) ([7]; 4 mg/m^2): 1 of the first 6 patients | day of ANC nadir ([7]; Phase I, Q21 days): 7 to 8 days | day of ANC recovery ([7]; Phase I, Q21 days): ≤ 15 days | neurotoxicity, mucositis, thrombocytopenia, alopecia, and nausea vomiting requiring pre-medication ([7]; Phase I, one hour infusion every 21 days): have not been observed | most commonly occurring dose-limiting toxicity [7, 22]: Prolonged (≧5 days), reversible neutropenia | presumptive maximum tolerated dose (MTD) [7, 22]: 4 mg/m^2 | dose eliciting Grade 4 neutropenia lasting ≧5 days ([7]; single one hour infusion every 21 days): ≥ 5 mg/m^2 | cytotoxic activity [8]: less than 2 nM | hemolysis ([9]; at 0.3 mg/mL): no hemolysis was observed | hemolytic concentration ([9]; mixed with rat, dog, rabbit and human blood): ≥ 0.6 mg/mL | micronucleus result [10]: positive results as an aneugen | TGD, second arm, single agents (HT29 tumor xenografts): 12 days | mean tumor growth delay (TGD) (HT29 tumor xenografts): 24 days | mean time to endpoint (TTE), tumor volume=1000 mm^3 (HT29 tumor xenografts): did not differ significantly from untreated control animals | genotoxic activity (In vitro Ames test): did not show evidence of genotoxic activity | animals euthanized in moribund condition ([11]; Day 4 after a single 1-hr IV infusion of 20 mg/m^2): One of 10 dogs | dose with clinical observations of gastrointestinal (GI) disturbances ([11]; dog, 1-hr IV infusion): ≥ 10 mg/m^2 | highest non-severely toxic dose ([11]; dog, 1-hr IV infusion, once weekly for 3 weeks): 10 mg/m^2 | dose with testicular germinal epithelial abnormalities ([11]; male dogs): 20 mg/m^2 | IC50 (HT29): 1.9 nM | single agent activity against advanced xenograft [12]: tumor growth delay | single agent MTD (q4d×3) ([13]; i.p.): about 10 mg/kg | IC50 (MX1): 0.06 nM | single agent activity against advanced xenograft [14]: complete and partial regressions | IC50 (Colo205): 0.07 nM | single agent activity against advanced xenograft [15]: complete and partial regressions | single agent activity against advanced xenograft [16]: complete and partial regressions | single agent activity against advanced xenograft [17]: complete and partial regressions | tumor regressions [18]: did not induce any tumor regressions | tumor growth delay (T-C1000) ([18]; time differential to tumor volume 1000 mm^3): 10 days | IC50 (P388 (murine)): 14.4 nM | IC50 (SKOV3): 0.2 nM | genotoxic activity (mouse lymphoma): did not show evidence of genotoxic activity | IC50 (MV522): 1.7 nM | dose with degenerative testicular changes not reversed 2 weeks after dosing ([19]; rat IV infusion): ≥ 18 mg/m^2 | dose with increased mitotic figures in many tissues ([19]; rat IV infusion): ≥ 36 mg/m^2 | MTD [19, 23]: 72 mg/m^2 | mortality [19, 23]: no mortality | dose at which mortality occurred ([19]; rat, after a single dose): 18 mg/m^2 | dose at which mortality occurred ([19]; rat, after repeated weekly dosing): 12 mg/m^2 | single agent activity against advanced xenograft ([20]; Colo205): complete regressions | tumor regression ([20]; i.p. q4d×3, at the MTD): complete tumor regressions | tumor regression ([20]; i.p. q4d×3, doses as low as 25% of the MTD, majority of animals): Partial tumor regressions

CC(=O)O[C@H]1C(=O)[C@@]2(C)[C@H]([C@H](OC(=O)c3ccccc3)[C@]3(O)C[C@H](OC(=O)[C@H](O)[C@@H](NC(=O)c4ccccc4)c4ccccc4)C(C)=C1C3(C)C)[C@]1(OC(C)=O)CO[C@@H]1C[C@@H]2O [paclitaxel]
mean time to endpoint (TTE), tumor volume=1000 mm^3 (HT29 tumor xenografts): 59 days

CC(C)C[C@H](NC(=O)[C@H](Cc1ccccc1)NC(=O)c1cnccn1)B(O)O [bortezomib]
TGD, second arm, single agents (HT29 tumor xenografts): 9 days | mean tumor growth delay (TGD) (HT29 tumor xenografts): 9 days | mean time to endpoint (TTE), tumor volume=1000 mm^3 (HT29 tumor xenografts): did not differ significantly from untreated control animals | MTD ([13]; female, athymic nu/nu (nude), mouse, in vivo, ip, read-out: single agent MTD (q4d×3)): ~1.5 mg/kg
